Data from patent US7485710B2, “Nucleic acids coding for adhesion factor of group B streptococcus, adhesion factors of group B streptococcus and further uses thereof” (priority 2002, dated 2009).

B1: PabD: C-terminally his-tagged fusion protein of GBS 6313 PabD (gbs0851) devoid of signal peptide (protein)
chain: DDNFEMPTRYVKMSEKSKAFYQRLQEKQRKAHTTVKTFNNSEIRHQLPLKQEKARNDIYNLGILISQESKGFIQRIDNAYSLENVSDIVNEAQALYKRNYDLFEKIKSTRDKVQVLLASHQDNTDLKNFYAELDDMYEHVYLNESRVEAINRNIQKYN
modifications: left off: small tags and cut ends
notes: C-terminally his-tagged fusion protein of GBS 6313 PabD (gbs0851) devoid of signal peptide

Experiments:
[1] = test system: A549 cells; assay: Epithelial cell adherence and internalization assay of GBS 6313 in presence of proteins; type: cell-based, human; details: for adherence of GBS 6313 to A549 cells in the presence of fusion protein / invasion of A549 cells by GBS 6313 in the presence of fusion protein: 100 μg/ml fusion protein (FIG. 19)
Method: The adherence of GBS 6313 to A549 cells (A) and its internalization into these cells (B) was arbitrarily set to 100% and the results obtained in the presence of the different fusion proteins was related to these values. Each experiment was performed at least three times in triplicate.
Adherence of GBS to epithelial cells and internalization into epithelial cells was assayed essentially as described previously (Caparon et al., 1991; Rubens et al. 1992). Briefly, A549 cells were transferred to 24-well tissue culture plates at approximately 4×10^5 cells per well and cultivated overnight in RPMI (Gibco BRL) tissue culture medium, supplemented with 10% of fetal calf serum. After replacement of the medium with 1 ml of fresh medium, the cells were infected with 5×10^6 streptococci per well and incubated at 37° C. for 2 h. The non-adherent bacteria were removed by washing three times with PBS. In adherence assays, the epithelial cells were subsequently detached from the well by the addition of trypsin/EDTA and lysed by adding 300 μl of distilled water. Adherent bacteria were quantitated by plating serial dilutions of the lysate onto THY agar plates. For internalization assays the epithelial cells were incubated after 2 h of infection for another 2 h in tissue culture medium supplemented with penicilling G (10 U) and streptomycin (0.01 mg) to kill extracellular bacteria. After three washes with PBS, the epithelial cells were detached by the addition of trypsin/EDTA and lysed in 300 μl of distilled water. The amount of intracellular bacteria was quantified by plating serial dilutions of the lysate onto THY agar plates. Each experiment was repeated at least three times in triplicate. […]
Adherence of S. agalactiae to A549 and HEL299 cells and internalization into these cells was assayed essentially as described in Example 1 for A549 cells. In some experiments, A549 cells were preincubated with different amounts of FbsA protein or FbsA-derived peptides in RPMI medium for 30 min with three subsequent washes with PBS.

[2] = test system: GBS strain 6313; assay: Binding of radiolabelled human proteins to GBS; set-up: species or system Streptococcus agalactiae; details: untreated bacteria
Method: Purified human fibrinogen was radiolabelled with ^125I, using the chloramin T method (Hunter and Greenwood, 1962). Binding of labelled fibrinogen to GBS was performed essentially as described by Chhatwal et al. (Chhatwal, Muller, and Blobel, 1983). Briefly, overnight cultures of GBS were pelleted by centrifugation, washed twice with phosphate-buffered saline supplemented with 0.02% Tween 20 (PBST) and adjusted photometrically to a transmission of 10% at 600 nm. A total of 0.2 ml of the bacterial suspension was added to 20 μl of ^125I-labelled fibrinogen containing 23 ng of fibrinogen. After incubation for 1 h at room temperature, the streptococci were sedimented by centrifugation and washed with 1 ml of PBST. The radioactivity of the pellet was finally measured in a gamma counter (Packard Instruments). The amount of bacterial-bound fibrinogen was calculated as the percentage of total radiolabelled fibrinogen added to the bacteria. In inhibition experiments, the binding of 23 ng of radiolabelled fibrinogen to 0.2 ml of GBS (T=10%) was determined in the presence of various amounts of FbsA fusion proteins, Bsp fusion protein or synthetic peptides. Each experiment was repeated at least three times in triplicate.
GBS strain 6313, belonging to serotype III, was tested in binding experiments for its interaction with radiolabelled human vitronectin, laminin, fibronectin, fibrinogen, and IgG. […]

[3] = test system: A549 cells; assay: Interaction of protein-coated latex beads with A549 cells (scanning electron microscopy); type: cell-based, human
Method: BSA-coated latex beads were used as a control.
Latex beads were either coated with BSA (A) or FbsA fusion protein (B-D) and the interaction of the coated beads with the lung epithelial cell line A549 was analyzed by scanning electron microscopy.
Approximately […] latex beads (3 μm diameter, Sigma) were washed tree times in PBS and then coated with 300 μg of fusion protein or BSA in 500 μl PBS overnight at 4° C. Coated beads were washed once in PBS and then blocked with 200 μl of 10 mg/ml BSA in PBS for 1 h at room temperature. Beads were washed twice in PBS and once in RPMI+10% FCS and then resupended in 1 ml of RPMI+10% FCS. 300 μl of beads were added to approximately 4×10^5 A549 cells in 24-well plates. The cells were incubated for 1 h at 37° C. (5% CO2), washed five times with PBS and fixed in a solution containing 3% glutaraldehyde and 5% formaldehyde in cacodylate bluffer for 45 min on ice. The samples were washed with cacodylate buffer, dehydrated in a graded series of acetone and subjected to critical point drying with CO2. Samples were then coated with a 10 nm thick gold film and examined by scanning electron microscopy as described previously (Reinscheid et al., 2001a).
Approximately 1×10^9 latex beads (3 μm diameter, Sigma) were washed three times in 25 mM 2-N-morpholinoethanesulfonic acid (MES), pH 6.8. One half was resuspended in 1.0 ml MES buffer containing 500 μg/ml FbsA fusion protein and the remaining half was resuspended in 1.0 ml MES buffer. The beads were incubated overnight at 4° C. with end-over-end rotation. After pelleting of the beads by centrifugation, the amount of remaining protein in the supernatant was determined with a Bradford protein assay kit (BioRad). The beads were washed once with MES buffer and blocked for 1 h with 10 mg/ml BSA in MES buffer at room temperature. The beads were washed twice with MES buffer, once with RPMI+10% FCS, and resuspended in RPMI+10% FCS. Confluent A549 cells in 24-well plates were inoculated with 2×10^8 beads per well in a total volume of 1.0 ml. The bead monolayer mixtures were incubated for 2 h at 37° C. in a 5% CO2 atmosphere. Cells were washed five times with PBS and fixed with 3% paraformaldehyde and 4% glutaraldehyde in […] cacodylate buffer for scanning electron microscopy. Scanning electron microscopy was performed with a Zeiss DSM 962 microscope.

[4] = Subcutaneous immunization of mice and probing of fusion proteins with mice sera; type: in vivo; details: boost after three weeks, serum after six weeks, 1:1000 dilution
Source text: Serial dilutions of the fusion proteins PabA, PabB, and PabD were spotted onto nitrocellulose and probed with a 1:1000 dilution of the mice sera against the respective proteins. Bound antibodies were labelled with an anti-mouse-HRP conjugate and visualized by chemiluminescence.
To test, if the proteins PabA, PabB and PabD elicit an immune response in mice, purified PabA, PabB and PabD fusion protein was used for the subcutaneous immunization of mice. The mice were boosted after three weeks and serum was collected six weeks after the first immunization. Serial dilutions of the PabA, PabB, and PabD fusion proteins were blotted onto nitrocellulose and probed with the mice sera against the different proteins.

[5] = 1 μg/ml of externally added fibrinogen
[6] = fibrinogen 0.1 μg/ml to 1.0 μg/ml, fibronectin 10 μg/ml, data not shown

| Molecule | reduction of the adherence of GBS 6313 to A549 cells [1, 5] [%] | reduction of the invasion of A549 cells by GBS 6313 [1, 5] [%] | bacterial adherence to A549 cells after pre-incubation of S. agalactiae 6313 with protein [1, 6] | bacterial invasion of A549 cells after pre-incubation of S. agalactiae 6313 with protein [1, 6] | radiolabelled protein accumulated on the surface of GBS 6313 (of total) [2] | adherence of GBS 6313 to A549 cells in the presence of fusion protein [1] | invasion of A549 cells by GBS 6313 in the presence of fusion protein [1] | binding of protein-coated latex beads to A549 cells [3] | immune response in mice (detection of fusion protein by mice sera) [4] |
| --- | --- | --- | --- | --- | --- | --- | --- | --- | --- |
| fibrinogen: purified human fibrinogen (Sigma), 330 kDa plasma glycoprotein [reference compound] | 90 | 90 | dose-dependent inhibition | dose-dependent inhibition | about 50% |  |  |  |  |
| PabA |  |  |  |  |  | significantly reduced | significantly reduced | significant binding | high immunogenicity |
| B1 |  |  |  |  |  | significantly reduced | significantly reduced | significant binding | high immunogenicity |
